The text below walks through data of PubChem BioAssay AID850 (SRMLSC, 2007).

Active and inactive are the calls of the source. The rule behind the calls is not given here. A value given as a limit tells only on which side of the number the result lay.

Test [1] in a line: concentration-response yeast growth inhibition under permissive conditions, counter-assay for yeast lifespan-shortening chemical project (AID 850).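 Note: growth read as optical density after one day of incubation.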 Conditions: Saccharomyces cerevisiae growth inhibition, permissive control, measured here: maximum growth inhibition, stronger effect = higher value.
Test [2] has as its system Saccharomyces cerevisiae growth inhibition, permissive control. Described as above.

`O=C(N/N=C/c1cc2c3c(c1O)CCCN3CCC2)c1ccccc1O` registered an inhibition in test [1] (at 50 µM) of 49.5%. For the same molecule, the IC50 in test [2] is 48.1 µM.
Consider `O=[N+]([O-])c1cc(CN2CCCC2)c2cccnc2c1O`, for which, in test [1] (at 50 µM), the inhibition was determined as 21%. The IC50 in test [2] is > 100 µM (inactive).
As for `N#C/C(=C\c1ccc([N+](=O)[O-])o1)c1nc2ccccc2[nH]1`, the inhibition in test [1] (at 6.25 µM) is 21.4%. In test [2], the IC50 was > 100 µM (inactive).
The molecule `COc1ccc(CN2CN(C(C)C)CSC2=S)cc1` displayed an inhibition in test [1] (at 50 µM) of 26.3%. In addition, the IC50 in test [2] was > 100 µM (inactive).
In test [1] (at 0.195 µM), `O=C(O)c1cc2c(s1)-c1ccccc1OC2` yielded an inhibition of 15.9%. The IC50 in test [2] was > 100 µM (inactive).
For `CCOc1ccccc1C1CC(c2ccc(Br)cc2)Nc2nc(N)nn21` (stereo unspecified), the inhibition in test [1] (at 0.781 µM) was determined as 10.2%. Also, in test [2], the IC50 was > 100 µM (inactive).
As for `Cc1cccc(C(=O)CC(=O)c2cc(Cl)ccc2O)c1`, the inhibition in test [1] (at 50 µM) is 52.9%. Moreover, in test [2], the IC50 is 35.8 µM.
For `CC(NC(=O)/C(C#N)=C/c1ccc(Cl)c([N+](=O)[O-])c1)c1ccccc1` (stereo unspecified) the same measures were 15% and > 100 µM (inactive).
In test [1] (at 50 µM), `C/C(=N\Nc1ccc([N+](=O)[O-])cc1)c1ccc(N)cc1` yielded an inhibition of 94.4%. Further, the concentration for half-maximal inhibition (IC50) in test [2] is 6.04 µM.
For `O=C(OCn1ncc(Cl)c(Cl)c1=O)c1cccc(C(F)(F)F)c1` the same measures were 12.7% and > 100 µM (inactive).
For the molecule `CCOC(=O)c1c(NC(=O)C(C)Sc2cccc[n+]2[O-])sc2c1CCN(Cc1ccccc1)C2` (stereo unspecified), the inhibition in test [1] (at 50 µM) amounted to 98.6%. Further, the half-inhibitory concentration (IC50) in test [2] is 16.3 µM.
In test [1] (at 0.781 µM), `CCCCNC(=S)NCc1ccc2c(c1)cc(C)n2C` had an inhibition of 0.79%. Moreover, the IC50 in test [2] is > 100 µM (inactive).
As to `COc1ccc(NC(=O)CC2SC(=Nc3ccccc3)NC2=O)c(OC)c1` (stereo unspecified), in test [1] (at 25 µM), the inhibition was 23.9%. Further, the IC50 in test [2] was > 100 µM (inactive).
For `O=C1c2ccccc2NC(c2ccc(-c3ccc(Br)cc3)o2)N1O` (stereo unspecified), the inhibition in test [1] (at 50 µM) stood at 99%. In addition, the half-maximal inhibitory concentration (IC50) in test [2] was 18.9 µM.
For `O=c1c2sc(-c3ccccc3)cc2nc2n1CCC2` the same measures were 83.4% and 14.6 µM.
`CCOc1cc(C2CC(=O)N3CN(C4CCCCC4)CSC3=C2C#N)ccc1O` (stereo unspecified) showed an inhibition in test [1] (at 0.781 µM) of 8.66%. For the same molecule, the IC50 in test [2] is > 100 µM (inactive).
In turn, `O=C(COc1ccccc1)NNC(=S)NC(=O)c1ccc(Cl)cc1Cl` showed an inhibition in test [1] (at 50 µM) of 84.4%. For the same molecule, the IC50 in test [2] was 25.7 µM.
As to `O=C(CCSc1nnc(-c2ccncc2)o1)Nc1ccc(Cl)cc1`, the inhibition in test [1] (at 12.5 µM) was found to be 86.9%. The IC50 in test [2] was 8.46 µM.
Regarding `c1ccc2nc3c(nc2c1)[nH]c1ccccc13`, the inhibition in test [1] (at 50 µM) was determined as 19.1%. Also, the IC50 in test [2] was > 100 µM (inactive).
In turn, `Cc1ccc2c(c1)C(=NC1CCCCC1)c1cc3ccccc3nc1-2` showed an inhibition in test [1] (at 12.5 µM) of 22.8%. Also, the IC50 in test [2] is > 100 µM (inactive).
With `O=C(COc1ccc(Cl)cc1)NC1=NN(c2ccccc2)C(=O)C1`, the inhibition in test [1] (at 6.25 µM) amounted to 14.6%. The IC50 in test [2] was > 100 µM (inactive).
With `CCOC(=O)c1c(N)sc(C(O)(C(F)(F)F)C(F)(F)F)c1-c1ccc(F)cc1`, in test [1] (at 0.098 µM), the inhibition amounted to 8.89%. Moreover, the IC50 in test [2] is > 100 µM (inactive).
`Cc1ccc(Nc2cc(C)nn2-c2nc(C)cc(=O)[nH]2)cc1` displayed an inhibition in test [1] (at 6.25 µM) of 96.6%. Also, the IC50 in test [2] is 0.708 µM.
As for `O=C(Nc1cccc(C(F)(F)F)c1)C(Sc1cccc[n+]1[O-])c1ccccc1` (stereo unspecified), in test [1] (at 50 µM), the inhibition worked out at 90.2%. In test [2], the IC50 is 31.4 µM.
For `COc1cccc(-n2nnnc2S(C)(=O)=O)c1` the same measures were 83.2% and 23.9 µM.
Take `COC(=O)Cn1c2ccccc2c2nc(C)sc21`: the inhibition in test [1] (at 6.25 µM) was 28.7%. In addition, in test [2], the IC50 was > 100 µM (inactive).
Molecule `Cc1nc(N/N=C/c2ccccn2)sc1C` gave an inhibition in test [1] (at 50 µM) of 99.8%. Also, the concentration for half-maximal inhibition (IC50) in test [2] is 25.8 µM.
The molecule `O=C1C2C3C=CC(CO)(O3)C2C(=O)N1c1ccccc1-c1ccccc1` (stereo unspecified) displayed an inhibition in test [1] (at 6.25 µM) of 19.9%. Also, the IC50 in test [2] was > 100 µM (inactive).
On to `CC1CCC2(CC1)NC(=S)N(c1ccccc1)N2` (stereo unspecified), for which the inhibition in test [1] (at 50 µM) is 97.5%. Also, in test [2], the half-maximal inhibitory concentration (IC50) was 14.1 µM.
In test [1] (at 50 µM), `C=CCn1c(C)cc(C(=O)CSc2nnc(NCc3ccccc3)s2)c1C` came in with an inhibition of 22.4%. The IC50 in test [2] was > 100 µM (inactive).
The molecule `CCn1c(Sc2nc(C)nc3scc(-c4cccs4)c23)n[nH]c1=O` yielded an inhibition in test [1] (at 25 µM) of 55.1%. In test [2], the 50% inhibitory concentration (IC50) is 22.9 µM.
In test [1] (at 3.125 µM), `O=c1cc(-c2ccncc2)oc2ccccc12` showed an inhibition of 20.9%. Moreover, the IC50 in test [2] is > 100 µM (inactive).
In test [1] (at 0.195 µM), `CC(C)N=c1scc(-c2cccs2)n1/N=C/c1ccc(O)c(O)c1O` came in with an inhibition of 2.13%. Moreover, the IC50 in test [2] is > 100 µM (inactive).

Usually inhibition stands for the share of the control response that was lost under treatment. In general, IC50 refers to the concentration that gives 50% inhibition.
